Reference: patent publication US12319664B2, “Herbicidally active 3-phenylisoxazoline-5-carboxamides of cyclopentenylcarboxylic acid derivatives” (Bayer Aktiengesellschaft, priority 2018, dated 2025)

Columns and labels:
ALOMY [1] = assay: Pre-emergence herbicidal action against ALOMY; assay type: in vivo, Alopecurus myosuroides; settings: application rate 80 g/ha, scored visually after about 3 weeks vs untreated controls (100% = plants have died, 0% = like control plants)
Description: (§1) 1. Pre-emergence herbicidal action against harmful plants and crop plant compatibility Seeds of monocotyledonous and dicotyledonous weed plants and crop plants are placed in plastic or wood-fibre pots and covered with soil. The compounds of the invention, formulated in the form of wettable powders (WP) or as emulsion concentrates (EC), are then applied onto the surface of the covering soil as aqueous suspension or emulsion with addition of 0.5% additive at a water application rate of 600 l/ha (converted). After the treatment, the pots are placed in a greenhouse and kept under good growth conditions for the trial plants. After about 3 weeks, the effect of the preparations is scored visually in comparison with untreated controls as percentages. For example, 100% activity=the plants have died, 0% activity=like control plants. [table]

AVEFA [2] = assay: Pre-emergence herbicidal action against AVEFA; assay type: in vivo, Avena fatua; settings: application rate 80 g/ha, scored visually after about 3 weeks vs untreated controls (100% = plants have died, 0% = like control plants)
Description: as §1

ECHCG [3] = assay: Pre-emergence herbicidal action against ECHCG; assay type: in vivo, Echinochloa crus-galli; settings: application rate 80 g/ha, scored visually after about 3 weeks vs untreated controls (100% = plants have died, 0% = like control plants)
Description: as §1

LOLRI [4] = assay: Pre-emergence herbicidal action against LOLRI; assay type: in vivo, Lolium rigidum; settings: application rate 80 g/ha, scored visually after about 3 weeks vs untreated controls (100% = plants have died, 0% = like control plants)
Description: as §1

SETVI [5] = assay: Pre-emergence herbicidal action against SETVI; assay type: in vivo, Setaria viridis; settings: application rate 80 g/ha, scored visually after about 3 weeks vs untreated controls (100% = plants have died, 0% = like control plants)
Description: as §1

AMARE [6] = assay: Pre-emergence herbicidal action against AMARE; assay type: in vivo, Amaranthus retroflexus; settings: application rate 80 g/ha
Description: as §1

PHBPU [7] = assay: Pre-emergence herbicidal action against PHBPU; assay type: in vivo, Pharbitis purpurea; settings: application rate 80 g/ha
Description: as §1

POLCO [8] = assay: Pre-emergence herbicidal action against POLCO; assay type: in vivo, Polygonum convolvulus; settings: application rate 80 g/ha
Description: as §1

STEME [9] = assay: Pre-emergence herbicidal action against STEME; assay type: in vivo, Stellaria media; settings: application rate 80 g/ha
Description: as §1

VIOTR [10] = assay: Pre-emergence herbicidal action against VIOTR; assay type: in vivo, Viola tricolor; settings: application rate 80 g/ha
Description: as §1

VERPE [11] = assay: Pre-emergence herbicidal action against VERPE; assay type: in vivo, Veronica persica; settings: application rate 80 g/ha
Description: as §1

HORMU [12] = assay: Pre-emergence herbicidal action against HORMU; assay type: in vivo, Hordeum murinum; settings: application rate 80 g/ha
Description: as §1

ALOMY [13] = assay: Post-emergence herbicidal action against ALOMY; assay type: in vivo, Alopecurus myosuroides; settings: application rate 80 g/ha, rated visually after about 3 weeks
Outline: (§2)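 Greenhouse pot test in sandy loam; plants sprayed at the one-leaf stage, 2 to 3 weeks after sowing, with WP or EC formulations as aqueous suspension/emulsion plus 0.5% additive at 600 l/ha water. Visual rating after about 3 weeks against untreated controls (100% = plants died, 0% = like control).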

AVEFA [14] = assay: Post-emergence herbicidal action against AVEFA; assay type: in vivo, Avena fatua; settings: application rate 80 g/ha, rated visually after about 3 weeks
Outline: as §2

ECHCG [15] = assay: Post-emergence herbicidal action against ECHCG; assay type: in vivo, Echinochloa crus-galli; settings: application rate 80 g/ha, rated visually after about 3 weeks
Outline: as §2

LOLRI [16] = assay: Post-emergence herbicidal action against LOLRI; assay type: in vivo, Lolium rigidum; settings: application rate 80 g/ha, rated visually after about 3 weeks
Outline: as §2

SETVI [17] = assay: Post-emergence herbicidal action against SETVI; assay type: in vivo, Setaria viridis; settings: application rate 80 g/ha, rated visually after about 3 weeks
Outline: as §2

AMARE [18] = assay: Post-emergence herbicidal action against AMARE; assay type: in vivo, Amaranthus retroflexus; settings: application rate 80 g/ha, rated visually about 3 weeks after treatment
Outline: as §2

PHBPU [19] = assay: Post-emergence herbicidal action against PHBPU; assay type: in vivo, Pharbitis purpurea; settings: application rate 80 g/ha, rated visually about 3 weeks after treatment
Outline: as §2

POLCO [20] = assay: Post-emergence herbicidal action against POLCO; assay type: in vivo, Polygonum convolvulus; settings: application rate 80 g/ha, rated visually about 3 weeks after treatment
Outline: as §2

STEME [21] = assay: Post-emergence herbicidal action against STEME; assay type: in vivo, Stellaria media; settings: application rate 80 g/ha, rated visually about 3 weeks after treatment
Outline: as §2

HORMU [22] = assay: Post-emergence herbicidal action against HORMU; assay type: in vivo, Hordeum murinum; settings: application rate 80 g/ha
Outline: as §2

VERPE [23] = assay: Post-emergence herbicidal action against VERPE; assay type: in vivo, Veronica persica; settings: application rate 80 g/ha
Outline: as §2

VIOTR [24] = assay: Post-emergence herbicidal action against VIOTR; assay type: in vivo, Viola tricolor; settings: application rate 80 g/ha, rated visually about 3 weeks after treatment
Outline: as §2

MATIN = assay: Pre-emergence herbicidal action against MATIN; assay type: in vivo, Matricaria inodora; settings: application rate 80 g/ha, scored visually after about 3 weeks vs untreated controls (100% = plants have died, 0% = like control plants)
Description: as §1

ABUTH = assay: Post-emergence herbicidal action against ABUTH; assay type: in vivo, Abutilon theophrasti; settings: application rate 80 g/ha, rated visually about 3 weeks after treatment
Outline: as §2

SMILES	Herbicidal action against [%] ALOMY (ALOMY [1])	Herbicidal action against [%] AVEFA (AVEFA [2])	Herbicidal action against [%] ECHCG (ECHCG [3])	Herbicidal action against [%] LOLRI (LOLRI [4])	Herbicidal action against [%] SETVI (SETVI [5])	Herbicidal action against [%] AMARE (AMARE [6])	Herbicidal action against [%] PHBPU (PHBPU [7])	Herbicidal action against [%] POLCO (POLCO [8])	Herbicidal action against [%] STEME (STEME [9])	Herbicidal action against [%] VIOTR (VIOTR [10])	Herbicidal action against [%] VERPE (VERPE [11])	Herbicidal action against [%] HORMU (HORMU [12])	Herbicidal action against [%] ALOMY (ALOMY [13])	Herbicidal action against [%] AVEFA (AVEFA [14])	Herbicidal action against [%] ECHCG (ECHCG [15])	Herbicidal action against [%] LOLRI (LOLRI [16])	Herbicidal action against [%] SETVI (SETVI [17])	Herbicidal action against [%] AMARE (AMARE [18])	Herbicidal action against [%] STEME (STEME [21])	Herbicidal action against [%] HORMU (HORMU [22])	further results
COC(=O)C1=CC[C@H](NC(=O)C2(C)CC(c3cccc(F)c3)=NO2)C1 (stereo partly drawn) [III-04]	100%	90%	90%	100%	100%	90%	90%	100%	90%	90%	90%	100%	90%	100%	80%	90%	80%	80%	80%	100%	Herbicidal action against [%] PHBPU (PHBPU [19]): 90%; Herbicidal action against [%] POLCO (POLCO [20]): 80%
CC1(C(=O)N[C@H]2CC=C(C(=O)O)C2)CC(c2cccc(F)c2)=NO1 (stereo partly drawn) [III-02]	100%	80%	–	100%	–	80%	80%	–	80%	–	90%	100%	80%	90%	90%	90%	80%	80%	80%	100%	Herbicidal action against [%] PHBPU (PHBPU [19]): 80%; Herbicidal action against [%] VERPE (VERPE [23]): 80%
CC1(C(=O)NC2C=CC(C(=O)N3CCCCO3)C2)CC(c2cc(F)cc(F)c2)=NO1 (mixture of isomers) [II-07]	100%	80%	90%	100%	100%	100%	–	100%	100%	100%	100%	90%	80%	80%	80%	80%	–	–	90%	–	Herbicidal action against [%] VIOTR (VIOTR [24]): 80%; Herbicidal action against [%] VERPE (VERPE [23]): 80%
CONC(=O)[C@@H]1C=C[C@H](NC(=O)C2(C)CC(c3cc(F)cc(F)c3)=NO2)C1 (stereo partly drawn) [II-02]	90%	90%	80%	90%	100%	100%	90%	100%	100%	90%	–	–	80%	80%	80%	80%	80%	80%	90%	–	Herbicidal action against [%] MATIN (MATIN): 90%
COC(=O)[C@@H]1C=C[C@H](NC(=O)C2(C)CC(c3cccc(F)c3)=NO2)C1 (stereo partly drawn) [Example I-004]	100%	90%	100%	90%	100%	80%	90%	100%	100%	–	–	–	80%	90%	80%	80%	80%	80%	80%	–	Herbicidal action against [%] MATIN (MATIN): 80%
CC1(C(=O)NC2CC=C(C(=O)NS(C)(=O)=O)C2)CC(c2cccc(F)c2)=NO1 (mixture of isomers) [IV-07]	100%	80%	–	90%	100%	80%	90%	80%	100%	90%	–	90%	90%	80%	80%	90%	80%	80%	90%	90%	Herbicidal action against [%] MATIN (MATIN): 80%; Herbicidal action against [%] PHBPU (PHBPU [19]): 80%; Herbicidal action against [%] POLCO (POLCO [20]): 80%; Herbicidal action against [%] VIOTR (VIOTR [24]): 80%; Herbicidal action against [%] VERPE (VERPE [23]): 80%
CCONC(=O)[C@@H]1C=C[C@H](NC(=O)C2(C)CC(c3cccc(F)c3)=NO2)C1 (stereo partly drawn) [II-04]	100%	80%	90%	90%	90%	100%	–	90%	100%	–	–	90%	80%	80%	80%	80%	80%	–	80%	–	Herbicidal action against [%] MATIN (MATIN): 80%
CCOC(=O)C1=CC[C@H](NC(=O)C2(C)CC(c3cccc(F)c3)=NO2)C1 (stereo partly drawn) [III-06]	100%	80%	90%	100%	100%	–	80%	100%	90%	90%	80%	90%	90%	80%	80%	90%	80%	80%	90%	90%	Herbicidal action against [%] ABUTH (ABUTH): 80%; Herbicidal action against [%] POLCO (POLCO [20]): 80%
